Among the data in patent EP2853565A1, “Glutamate receptor photomodulators” (Consejo Superior De Investigaciones Científicas, priority 2013, dated 2015) are IC50 values, retold here.

Where only a bound is given, the exact number is not on record here.

T1 sequence (P31424 21-1203): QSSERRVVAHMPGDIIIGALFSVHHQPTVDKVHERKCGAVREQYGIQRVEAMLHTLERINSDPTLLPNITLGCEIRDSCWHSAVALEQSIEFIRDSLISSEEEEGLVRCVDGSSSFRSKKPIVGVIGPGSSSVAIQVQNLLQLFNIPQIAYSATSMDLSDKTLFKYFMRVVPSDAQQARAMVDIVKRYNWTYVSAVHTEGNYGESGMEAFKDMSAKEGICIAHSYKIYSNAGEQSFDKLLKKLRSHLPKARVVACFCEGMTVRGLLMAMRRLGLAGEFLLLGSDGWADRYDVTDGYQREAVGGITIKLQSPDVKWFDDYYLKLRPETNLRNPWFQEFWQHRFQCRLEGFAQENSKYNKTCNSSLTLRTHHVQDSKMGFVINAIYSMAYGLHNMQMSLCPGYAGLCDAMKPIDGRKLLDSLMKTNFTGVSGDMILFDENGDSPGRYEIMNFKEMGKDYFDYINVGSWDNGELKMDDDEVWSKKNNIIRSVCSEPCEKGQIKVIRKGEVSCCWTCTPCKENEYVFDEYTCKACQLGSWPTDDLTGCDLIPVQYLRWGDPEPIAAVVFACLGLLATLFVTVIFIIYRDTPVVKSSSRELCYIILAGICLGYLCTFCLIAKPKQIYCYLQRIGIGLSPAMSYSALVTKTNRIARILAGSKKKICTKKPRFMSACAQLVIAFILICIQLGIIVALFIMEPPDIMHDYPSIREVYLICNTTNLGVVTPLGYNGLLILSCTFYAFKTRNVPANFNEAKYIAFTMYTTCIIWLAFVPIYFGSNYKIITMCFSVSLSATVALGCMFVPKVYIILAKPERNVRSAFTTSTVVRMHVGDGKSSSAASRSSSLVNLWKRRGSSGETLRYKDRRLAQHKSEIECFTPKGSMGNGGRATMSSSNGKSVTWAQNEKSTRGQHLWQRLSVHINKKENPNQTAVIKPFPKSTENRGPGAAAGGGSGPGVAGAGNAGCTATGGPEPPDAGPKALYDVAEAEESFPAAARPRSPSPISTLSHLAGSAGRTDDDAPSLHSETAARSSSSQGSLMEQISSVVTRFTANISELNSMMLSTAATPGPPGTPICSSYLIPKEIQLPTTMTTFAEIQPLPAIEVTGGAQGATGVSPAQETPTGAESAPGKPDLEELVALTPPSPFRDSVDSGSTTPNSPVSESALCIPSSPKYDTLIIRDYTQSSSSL

This test has as its target T1, rat mGlu5 receptor (Rattus norvegicus, UniProt P31424).
T1 construct: expressed in transfected cells; host or cells: HEK293 cells (EAAC1 glutamate transporter cotransfected)
The test can be described thus: IP1 accumulation (IP-One HTRF) in transiently transfected HEK293 cells. In kind it is cell-based. Conditions: IP1 production, HEK293 cells with rat mGlu5 and EAAC1, 30 min incubation, 100 nM Quisqualate. As to the method: Pharmacological experiments on mGlu receptors were performed in HEK293 cells cultured in Dulbecco's modified Eagle's medium (GIBCO-BRL Life Technologies Inc., Cergy Pontoise, France) supplemented with 10% fetal calf serum (FCS, GIBCO-BRL Life Technologies., Cergy Pontoise, France). The compounds were tested on a rat mGlu5 receptor, which was transiently transfected in HEK293 cells by electroporation as described elsewhere [Neuropharmacology 1998, 37, 1043-1051]. Additionally, a plasmid encoding the high-affinity glutamate transporter EAAC1 was cotransfected to prevent the influence of the glutamate released by the cells in the medium. Receptor activity is monitored by measurement of IP1 production using the kit IP-One HTRF® Assay from Cisbio Bioassays (France). For IP1 accumulation measurements, cells were seeded after transfection in polyornithine-coated, black-walled 96-well Polystyrene Cell Culture Microplates (Greiner Bio-One SAS, France) and cultured for 24 h in glutamate/glutamine-free medium (GIBCO-BRL Life Technologies Inc., Cergy Pontoise, France) and antibiotics (penicillin and streptomycin, 100 UmL_1 final, GIBCO-BRL Life Technologies). Media was removed and cells were incubated for 30min in a solution containing the drugs at the tested concentrations. The IP-One stimulation buffer, provided with the kit IP-One (Cisbio Bioassays, France), contains lithium chloride (LiCl) at 50mM that inhibits the degradation of IP1 to Myo-inositol, which is then accumulated in the cell. HTRF reagents, monoclonal antibody specific to IP1 labelled with terbium cryptate and IP1 coupled with the dye d2, diluted in a Lysis buffer were added. After 1 hour of incubation, time resolved fluorescence at 620nm and 665nm was measured with RUBYstar (BMG Labtech, Germany). The specific signal, which results from the energy transfer between […], is proportional to the ratio between the fluorescence emitted at 620 nm and 665 nm, and consequently to the concentration of IP1 in the lysate. All points were determined in triplicate. The dose-response curves were fitted using GraphPad Prism software and the following equation: y= [(ymax-ymin)/(1+10^(LogIC50-x))]+ymin, in which IC50 is the concentration of the compound necessary to obtain the half-maximal effect. (10 µM ≤ IC50 < 50 µM +; 2 µM ≤ IC50 < 10 µM ++; 500 nM ≤ IC50 < 2 µM +++; 100 nM ≤ IC50<500 nM ++++; IC50< 100 nM +++++) Table 14.
In general terms: In TR-FRET formats the signal depends on donor and acceptor labels being close together.
With `COc1cc(/N=N/c2ccccn2)ccc1NC(=O)c1ccc(C(=O)c2ccccc2)cc1` [Compound 1a, (E)-4-Benzoyl-N-(2-methoxy-4-(pyridin-2-yldiazenyl)phenyl)benzamide], the IC50 – broadly, the concentration at which inhibition is half-maximal – fell in the range of 500 to 2000 nM.

With `COc1cc(/N=N/c2ccccn2)ccc1NC(=O)Nc1ccccc1F` [Compound 1o, (E)-1-(2-Fluorophenyl)-3-(2-methoxy-4-(pyridin-2-yldiazenyl)phenyl)urea], the IC50 is 500 to 2000 nM.

As to `COc1cc(/N=N/c2ccccn2)ccc1NC(=O)c1ccncc1` [Compound 1f, (E)-N-(2-Methoxy-4-(pyridin-2-yldiazenyl)phenyl)isonicotinamide], the IC50 was 500 to 2000 nM.

For `O=C(Nc1ccccn1)c1ccc(/N=N/c2ccccn2)cc1` [Compound 1s, (E)-N-(Pyridin-2-yl)-4-(pyridin-2-yldiazenyl)benzamide], the IC50 was in the range of 10000 to 50000 nM.

With `COc1cc(/N=N/c2ccccn2)ccc1NC(=O)c1ccccc1F` [Compound 1p, (E)-2-Fluoro-N-(2-methoxy-4-(pyridin-2-yldiazenyl)phenyl)benzamide], the IC50 lay within 100 to 500 nM.

As for `COc1cc(/N=N/c2ccccn2)ccc1NC(=O)c1ccccc1` [Compound 1l, (E)-N-(2-Methoxy-4-(pyridin-2-yldiazenyl)phenyl)benzamide], the IC50 is 100 to 500 nM.

In the case of `COc1cc(/N=N/c2ccccn2)ccc1NC(=O)c1ccc(Cl)cc1Cl` [Compound 1b, (E)-2,4-Dichloro-N-(2-methoxy-4-(pyridin-2-yldiazenyl)phenyl)benzamide], the IC50 was in the range of 500 to 2000 nM.

As for `COc1cc(/N=N/c2ccccn2)ccc1N(C(=O)c1ccccc1)C(=O)c1ccccc1` [Compound 1k, (E)-N-Benzoyl-N-(2-methoxy-4-(pyridin-2-yldiazenyl)phenyl)benzamide], the IC50 was in the range of 500 to 2000 nM.

Regarding `COc1cc(NC(=O)c2ccccn2)ccc1/N=N/c1ccccn1` [Compound 1i, (E)-N-(3-Methoxy-4-(pyridin-2-yldiazenyl)phenyl)picolinamide], the IC50 is 10000 to 50000 nM.

On to `COc1cc(/N=N/c2ccccn2)ccc1NC(=O)c1cscn1` [Compound 1r, (E)-N-(2-Methoxy-4-(pyridin-2-yldiazenyl)phenyl)thiazole-4-carboxamide], for which the IC50 was 100 to 500 nM.

With `N#Cc1cc(/N=N/c2ccccn2)ccc1NC(=O)c1ccccn1` [Compound 1g, (E)-N-(2-Cyano-4-(pyridin-2-yldiazenyl)phenyl)picolinamide], the IC50 was 2000 to 10000 nM.

Turning to `COc1cc(/N=N/c2ccccn2)ccc1NC(=O)C(C)C` [Compound 1m, (E)-N-(2-Methoxy-4-(pyridin-2-yldiazenyl)phenyl)isobutyramide], the IC50 was less than 100 nM.

`O=C(Nc1ccc(/N=N/c2ccccn2)cc1)c1ccccn1` [Compound 1h, (E)-N-(4-(Pyridin-2-yldiazenyl)phenyl)picolinamide]: the IC50 is 2000 to 10000 nM.

Regarding `COc1cc(/N=N/c2ccccn2)ccc1NC(=O)c1ccccn1` [Compound 1d, (E)-N-(2-Methoxy-4-(pyridin-2-yldiazenyl)phenyl)picolinamide], the IC50 was in the range of 100 to 500 nM.

In the case of `COc1cc(/N=N/c2ccccn2)ccc1NC(=O)c1cccnc1` [Compound 1e, (E)-N-(2-Methoxy-4-(pyridin-2-yldiazenyl)phenyl)nicotinamide], the IC50 was in the range of 100 to 500 nM.

In the case of `COc1cc(/N=N/c2ccccn2)ccc1NC(=O)C1CCCCC1` [Compound 1n, (E)-N-(2-Methoxy-4-(pyridin-2-yldiazenyl)phenyl)cyclohexanecarboxamide], the IC50 is less than 100 nM.

In the case of `O=C(Nc1cccc(/N=N/c2ccccn2)c1)c1ccccn1` [Compound 1t, (E)-N-(3-(pyridin-2-yldiazenyl)phenyl)picolinamide], the IC50 was in the range of 10000 to 50000 nM.

Take `COc1cc(/N=N/c2ccccn2)ccc1N1C(=O)c2ccccc2C1=O` [Compound 1j, (E)-2-(2-Methoxy-4-(pyridin-2-yldiazenyl)phenyl)isoindoline-1,3-dione]: the IC50 fell in the range of 2000 to 10000 nM.
